Test results taken from ChEMBL document CHEMBL5625202, “Synthesis, characterization and anti-breast cancer activities of stachydrine derivatives” (Eur J Med Chem, 2023).
Calls of active or inactive are those of the source. The calls are words filed in the database; no cut-off is given here.

Columns and labels:
4T1 [1] = assay: Anticancer activity against mouse 4T1 cells assessed as inhibition of cell growth incubated for 24 hrs by CCK-8 assay; type: functional, cell-based; settings: 4T1, 24 h
4T1 [2] = assay: Induction of apoptosis in mouse 4T1 cells assessed as apoptotic rate at 2500 micromol/L incubated for 24 hrs by Annexin-V/PI staining based flow cytometry relative to control; type: functional; settings: dose 2500 µmol/L, at 2500 µM
4T1 [3] = assay: Induction of apoptosis in mouse 4T1 cells assessed as apoptotic rate at 5000 micromol/L incubated for 24 hrs by Annexin-V/PI staining based flow cytometry relative to control; type: functional; settings: dose 5000 µmol/L, at 5000 µM
4T1 [4] = assay: Induction of apoptosis in mouse 4T1 cells assessed as apoptotic rate at 10000 micromol/L incubated for 24 hrs by Annexin-V/PI staining based flow cytometry relative to control; type: functional; settings: dose 10000 µmol/L, at 10000 µM
4T1 [5] = assay: Induction of mitochondrial membrane potential loss in mouse 4T1 cells assessed as green fluorescence at 5000 uM incubated for 24 hrs by JC-1 staining based flow cytometric analysis (reference value: 11.7%); type: cell-based
4T1 [6] = assay: Induction of mitochondrial membrane potential loss in mouse 4T1 cells assessed as red fluorescence at 5000 uM incubated for 24 hrs by JC-1 staining based flow cytometric analysis (Rvb= 87.9%); type: cell-based
4T1 [7] = assay: Induction of apoptosis in mouse 4T1 cells assessed as increase in cleaved caspase-3 expression at 5 mM incubated for 24 hrs by Western blot analysis; type: functional, cell-based
4T1 [8] = assay: Induction of apoptosis in mouse 4T1 cells assessed as increase in Bax expression at 5 mM incubated for 24 hrs by Western blot analysis; type: functional, cell-based
4T1 [9] = assay: Induction of apoptosis in mouse 4T1 cells assessed as decrease in Bcl-2 expression at 5 mM incubated for 24 hrs by Western blot analysis; type: functional, cell-based
4T1 [10] = assay: Inhibition of cell migration in mouse 4T1 cells assessed as reduction in wound healing incubated for 24 hrs by microscopic analysis; type: functional, cell-based
[11] = Toxicity in BALB/c mouse implanted with mouse 4T1 cells assessed as change in lung histopathology at 0.2 mmol/Kg, po administered once every day for 14 days; type: organism-based; settings: in vivo, 336 h, time 14 day
[12] = Toxicity in BALB/c mouse implanted with mouse 4T1 cells assessed as increase in white blood cells at 0.2 mmol/Kg, po administered once every day for 14 days by routine blood analysis; type: organism-based; settings: in vivo, 336 h, time 14 day
4T1 [13] = assay: Antitumor activity against mouse 4T1 cells implanted in BALB/c mouse assessed as tumor growth inhibition at 0.2 mmol/Kg, po administered once every day for 14 days relative to control; type: functional; settings: 4T1, 336 h, time 14 day, read-out: TGI
4T1 [14] = assay: Antitumor activity against mouse 4T1 cells implanted in BALB/c mouse assessed as tumor cell shrinkage at 0.2 mmol/Kg, po administered once every day for 14 days by histological staining based analysis; type: functional, organism-based; settings: time 14.0 day
[15] = Toxicity in BALB/c mouse implanted with mouse 4T1 cells assessed as body weight loss at 0.2 mmol/Kg, po administered once daily for 14 days; type: organism-based; settings: in vivo, 336 h, time 14 day
[16] = Toxicity in BALB/c mouse implanted with mouse 4T1 cells assessed as increase in lymphocytes at 0.2 mmol/Kg, po administered once every day for 14 days by routine blood analysis; type: organism-based; settings: in vivo, 336 h, time 14 day
[17] = Toxicity in BALB/c mouse implanted with mouse 4T1 cells assessed as increase in neutrophil granulocytes at 0.2 mmol/Kg, po administered once every day for 14 days by routine blood analysis; type: organism-based; settings: in vivo, 336 h, time 14 day
[18] = Toxicity in BALB/c mouse implanted with mouse 4T1 cells assessed as increase in monocytes at 0.2 mmol/Kg, po administered once every day for 14 days by routine blood analysis; type: organism-based; settings: in vivo, 336 h, time 14 day
[19] = Toxicity in BALB/c mouse implanted with mouse 4T1 cells assessed as increase in AST level at 0.2 mmol/Kg, po administered once every day for 14 days by routine blood analysis; type: organism-based; settings: in vivo, 336 h, time 14 day
[20] = Toxicity in BALB/c mouse implanted with mouse 4T1 cells assessed as increase in ALT level at 0.2 mmol/Kg, po administered once every day for 14 days by routine blood analysis; type: organism-based; settings: in vivo, 336 h, time 14 day
[21] = Toxicity in BALB/c mouse implanted with mouse 4T1 cells assessed as effect on BUN level at 0.2 mmol/Kg, po administered once every day for 14 days by routine blood analysis; type: organism-based; settings: in vivo, 336 h, time 14 day
[22] = Toxicity in BALB/c mouse implanted with mouse 4T1 cells assessed as effect on CREA level at 0.2 mmol/Kg, po administered once every day for 14 days by routine blood analysis; type: organism-based; settings: in vivo, 336 h, time 14 day
[23] = Toxicity in BALB/c mouse implanted with mouse 4T1 cells assessed as reduction in spleen index at 0.2 mmol/Kg, po administered once every day for 14 days relative to control; type: organism-based; settings: in vivo, 336 h, time 14 day
[24] = Toxicity in BALB/c mouse implanted with mouse 4T1 cells assessed as change in heart histopathology at 0.2 mmol/Kg, po administered once every day for 14 days; type: organism-based; settings: in vivo, 336 h, time 14 day
[25] = Toxicity in BALB/c mouse implanted with mouse 4T1 cells assessed as change in liver histopathology at 0.2 mmol/Kg, po administered once every day for 14 days; type: organism-based; settings: in vivo, 336 h, time 14 day
[26] = Toxicity in BALB/c mouse implanted with mouse 4T1 cells assessed as change in kidney histopathology at 0.2 mmol/Kg, po administered once every day for 14 days; type: organism-based; settings: in vivo, 336 h, time 14 day
4T1 [27] = assay: Induction of apoptosis in mouse 4T1 cells assessed as increase in pro-caspase-3 expression at 5 mM incubated for 24 hrs by Western blot analysis; type: functional, cell-based
[28] = Tmax in Sprague-Dawley rat plasma at 10 mg/kg, iv measured upto 6 hrs by LC-MS/MS analysis; type: ADME, organism-based
[29] = Half life in Sprague-Dawley rat plasma at 10 mg/kg, iv measured upto 6 hrs by LC-MS/MS analysis; type: ADME, organism-based
[30] = Cmax in Sprague-Dawley rat plasma at 10 mg/kg, iv measured upto 6 hrs by LC-MS/MS analysis; type: ADME, organism-based
[31] = AUC (0 to t) in Sprague-Dawley rat plasma at 10 mg/kg, iv measured upto 6 hrs by LC-MS/MS analysis; type: ADME, organism-based
[32] = Oral bioavailability in Sprague-Dawley rat at 10 mg/kg measured upto 6 hrs by LC-MS/MS analysis; type: ADME, organism-based; settings: in vivo
4T1 [33] = assay: Antitumor activity against mouse 4T1 cells implanted in BALB/c mouse assessed as change in tumor weight at 0.2 mmol/Kg, po administered once every day for 14 days; type: functional, organism-based; settings: time 14.0 day
[34] = Toxicity in BALB/c mouse implanted with mouse 4T1 cells assessed as blurred spleen morphology at 0.2 mmol/Kg, po administered once every day for 14 days; type: organism-based; settings: in vivo, 336 h, time 14 day
[35] = Toxicity in BALB/c mouse implanted with mouse 4T1 cells assessed as splenic edema at 0.2 mmol/Kg, po administered once every day for 14 days; type: organism-based; settings: in vivo, 336 h, time 14 day
[36] = Toxicity in BALB/c mouse implanted with mouse 4T1 cells assessed as increase in splenic red pulp at 0.2 mmol/Kg, po administered once every day for 14 days; type: organism-based; settings: in vivo, 336 h, time 14 day
[37] = Stability of the compound in Sprague-Dawley rat plasma at 10 mg/kg, po measured after 6 hrs by LC-MS/MS analysis; type: ADME, organism-based; settings: in vivo
4T1 [38] = assay: Antitumor activity against mouse 4T1 cells implanted in BALB/c mouse assessed as tumor cell necrosis at 0.2 mmol/Kg, po administered once every day for 14 days by histological staining based analysis; type: functional, organism-based; settings: time 14.0 day

C[N+]1(C)CCCC1C(=O)[O-] (stereo not drawn)
IC50 (4T1 [1]): 39 mM
Activity (4T1 [2]): 20.38%
Activity (4T1 [3]): 28.09%
Activity (4T1 [4]): 32.47%
Activity (4T1 [5]): 29.6%
Activity (4T1 [6]): 70.4%
Activity (4T1 [7]): inactive
Activity (4T1 [8]): Active
Activity (4T1 [9]): Active
inhibition (4T1 [10]): Dose-Dependent Effect
Activity [11]: Non-Toxic
Activity [12]: Toxic
inhibition in vivo at 200 µmol/kg (4T1 [13]): 3.89%
Activity (4T1 [14]): Active
Activity [15]: Toxic
Activity [16]: Toxic
Activity [17]: Toxic
Activity [18]: Toxic
Activity [19]: Toxic
Activity [20]: Toxic
Activity [21]: Non-Toxic
Activity [22]: Non-Toxic
Activity [23]: Toxic
Activity [24]: Non-Toxic
Activity [25]: Non-Toxic
Activity [26]: Non-Toxic
Activity (4T1 [27]): inactive
Tmax [28]: 1.02 min
half-life [29]: 69.6 min
Cmax [30]: 94.6 µg/mL
AUC(0-t) at 6 h [31]: 18500 ng·h/mL
bioavailability [32]: 100%
Activity (4T1 [33]): Active
Activity [34]: Toxic
Activity [35]: Toxic
Activity [36]: Toxic
Stability [37]: Unstable
Activity (4T1 [38]): Active
